# In patent US7754709B2 (Solvay Pharmaceuticals BV, priority 2003, dated 2010):
# Several values for one entry are separate records, joined by “and”; a condition that tells them apart may be missing. Equal entries are not always repeated.
# How the values were obtained:
# Assay type in all cases: cell-based
# [1] = biological target: T1, 17β-hydroxysteroid dehydrogenase type 2 (Homo sapiens, UniProt P37059); assay: Inhibition of 17β-HSD type 2 in MCF-7 cells stably expressing the isoenzyme (HPLC, tritium labeled estradiol); settings: 2 nM estradiol, read-out: % Inhibition of the 17β-HSD enzyme type 2 (HSD2); for inhibition at 1 µM: MCF7, 1 μM compound; for inhibition at 10 µM: MCF7, 10 μM compound
# T1 construct: expressed in transfected cells; host or cells: MCF-7
# T1 sequence (P37059 1-387): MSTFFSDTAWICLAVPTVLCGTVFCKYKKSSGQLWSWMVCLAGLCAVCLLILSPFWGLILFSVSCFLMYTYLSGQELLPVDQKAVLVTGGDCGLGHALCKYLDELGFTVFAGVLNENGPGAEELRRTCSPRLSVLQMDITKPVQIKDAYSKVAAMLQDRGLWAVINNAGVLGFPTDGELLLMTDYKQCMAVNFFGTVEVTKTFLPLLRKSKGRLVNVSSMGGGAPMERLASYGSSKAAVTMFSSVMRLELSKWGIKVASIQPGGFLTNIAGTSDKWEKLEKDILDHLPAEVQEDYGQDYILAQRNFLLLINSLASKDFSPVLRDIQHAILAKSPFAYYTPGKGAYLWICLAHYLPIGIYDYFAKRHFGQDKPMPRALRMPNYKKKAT
# Excerpt: (§1) Biological Testing Materials and Methods 1. Inhibition of the 17β-hydroxysteroid dehydrogenase type 1, type 2 and type 3 enzyme
# (§2) The compounds were screened in respect of 17β-HSD enzyme activity in vitro on established M CF-7 cell lines, each stably expressing one of the respective 17β-HSD isoenzymes. The interconversion of substrate by each isoenzyme and the 17β-HSD inhibiting activity of chemical compounds in these cell lines were detected by HPLC system.
# (§3) Varying amounts of the test compounds were incubated in the growth medium of the 17β-HSD expressing cells together tritium labeled substrate (2 nM estrone for 17β-HSD type 1; 2 nM estradiol for 17β-HSD type 2; and 2 nM androstenedione for 17β-HSD type 3). The medium samples were removed after exact incubation time and the reaction is stopped by trichloroacetic acid (TCA). The samples were analyzed by HPLC-coupled flow scintillation analysis.
# (§4) For each enzyme type, the HSD-inhibiting activity of an individual test compound was calculated by comparing the conversion of a control sample without any test compound (referred to as “Negative Control”) to the (reduced) conversion of the test sample containing the particular compound to be tested (referred to as “Test Sample”).
# (§5) Two concentrations of each compound were used. The number of the compound refers to the numbers indicated in the Experimental Section.
# [2] = biological target: T2, 17β-hydroxysteroid dehydrogenase type 3 (Homo sapiens, UniProt P37058); assay: Inhibition of 17β-HSD type 3 in MCF-7 cells stably expressing the isoenzyme (HPLC, tritium labeled androstenedione); settings: 2 nM androstenedione; for inhibition at 1 µM: MCF7, 1 μM compound; for inhibition at 1 µM / inhibition at 10 µM: read-out: % Inhibition of the 17β-HSD enzyme type 3 (HSD3); for inhibition at 10 µM: MCF7, 10 μM compound
# T2 construct: expressed in transfected cells; host or cells: MCF-7
# T2 sequence (P37058 1-310): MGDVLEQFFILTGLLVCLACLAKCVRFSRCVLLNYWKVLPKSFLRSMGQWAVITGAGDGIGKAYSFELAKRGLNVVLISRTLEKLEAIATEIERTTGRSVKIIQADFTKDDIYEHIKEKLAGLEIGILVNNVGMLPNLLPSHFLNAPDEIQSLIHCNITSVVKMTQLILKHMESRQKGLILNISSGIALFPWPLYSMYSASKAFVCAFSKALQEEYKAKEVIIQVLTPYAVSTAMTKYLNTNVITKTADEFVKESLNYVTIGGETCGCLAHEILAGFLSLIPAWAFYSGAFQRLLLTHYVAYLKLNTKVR
# Excerpt: as §1, §2, §3, §4, §5
# [3] = biological target: T3, 17β-hydroxysteroid dehydrogenase type 1 (Homo sapiens, UniProt P14061); assay: Inhibition of 17β-HSD type 1 in MCF-7 cells stably expressing the isoenzyme (HPLC, tritium labeled estrone); settings: 2 nM estrone; for inhibition at 1 µM: MCF7, 1 μM compound; for inhibition at 1 µM / inhibition at 10 µM: read-out: % Inhibition of the 17β-HSD enzyme type 1 (HSD1); for inhibition at 10 µM: MCF7, 10 μM compound
# T3 construct: expressed in transfected cells; host or cells: MCF-7
# T3 sequence (P14061 1-328): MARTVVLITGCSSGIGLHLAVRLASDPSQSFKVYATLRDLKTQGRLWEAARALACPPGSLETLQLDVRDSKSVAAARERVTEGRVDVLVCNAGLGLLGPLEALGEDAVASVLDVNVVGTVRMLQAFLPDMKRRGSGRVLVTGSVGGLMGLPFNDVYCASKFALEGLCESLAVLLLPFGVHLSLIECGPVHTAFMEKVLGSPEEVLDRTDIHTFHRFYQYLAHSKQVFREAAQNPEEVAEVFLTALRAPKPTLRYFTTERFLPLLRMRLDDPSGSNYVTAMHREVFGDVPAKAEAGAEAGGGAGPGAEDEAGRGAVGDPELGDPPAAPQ
# Excerpt: as §1, §2, §3, §4, §5
inhibition at 1 µM [1] [%],inhibition at 10 µM [1] [%],inhibition at 1 µM [2] [%],inhibition at 10 µM [2] [%],inhibition at 1 µM [3] [%],inhibition at 10 µM [3] [%],% Inhibition of the 17β-HSD enzyme type 3 (HSD3) ([2]; 1 μM compound),% Inhibition of the 17β-HSD enzyme type 3 (HSD3) ([2]; 10 μM compound),% Inhibition of the 17β-HSD enzyme type 1 (HSD1) ([3]; 1 μM compound) [%],% Inhibition of the 17β-HSD enzyme type 1 (HSD1) ([3]; 10 μM compound) [%],Structure (SMILES)
16.2,23.4,39,24.9,10,45.9,,,,,"O=c1c2c3c(sc2nc2n1CCCCC2)CCCC3 [Compound 2a, 2,3,4,7,8,9,10,11-Octahydro[1]benzothieno[2′,3′:4,5]pyrimido-[1,2-a]azepin-13(1H)-one]"
15.9,21.4,4.2,9.5,21,15,,,,,"O=c1c2c3c(sc2nc2n1CCCCC2)CCC3 [Compound 2b, 1,2,3,6,7,8,9,10-Octahydro-12H-cyclopenta[4′,5′]thieno[2′,3′:4,5]pyrimido[1,2-a]-azepin-12-one]"
8.9,13.5,50.8,47,22.7,39.8,,,,,"O=c1c2c3c(sc2nc2n1CCCCC2)CCCCC3 [Compound 2c, 1,2,3,4,5,8,9,10,11,12-Decahydro-14H-cyclohepta[4′,5′]thieno[2′,3′:4,5]pyrimido-[1,2-a]azepin-14-one]"
26,28.9,46.8,38.8,15.8,20,,,,,"O=c1c2c3c(sc2nc2n1CCCC2)CCCC3 [Compound 2e, 1,2,3,4,7,8,9,10-Octahydro-12H-[1]benzothieno[2,3-d]pyrido[1,2-a]pyrimidin-12-one]"
37,32.4,48.2,40.4,19.9,19.2,,,,,"O=c1c2c3c(sc2nc2n1CCC2)CCCC3 [Compound 2f, 2,3,6,7,8,9-Hexahydro[1]benzothieno[2,3-d]pyrrolo[1,2-a]pyrimidin-10(1H)-one]"
44.9,24.9,51.7,51.3,30.7,37,,,,,"Cc1nc2sc3c(c2c(=O)n1C)CCCC3 [Compound 2g, 5,6,7,8-Tetrahydro-2,3-dimethyl[1]benzothieno[2,3-d]pyrimidin-4(3H)-one]"
20.6,29.4,4.4,9.9,12.7,18.5,,,,,"CCc1nc2sc3c(c2c(=O)n1C)CCCC3 [Compound 2i, 5,6,7,8-Tetrahydro-2-ethyl-3-methyl[1]benzothieno[2,3-d]pyrimidin-4(3H)-one]"
14.1,25.4,0.3,13.7,13.5,20.7,,,,,"O=C1CCc2c1sc1nc3n(c(=O)c21)CCCCC3 [Compound 3b, 1,2,6,7,8,9,10-heptahydrocyclopenta[4′,5′]thieno[2′,3′:4,5]pyrimido[1,2-a]-azepin-3,12-dione]"
14.1,11.1,15.3,,14.3,42.9,22.3%,16.7% and 8.1%,18.2,37.6,"O=C1CCCc2c1sc1nc3n(c(=O)c21)CCCCCC3 [Compound 3d, 1,2,7,8,9,10,11,12-octahydro[1]benzothieno[2′,3′:4,5]pyrimido-[1,2-a]azocin-4, 14(3H)-dione]"
25.7,16.3,38.5,47.4,6.3,35.8,,,,,O=C1CCCc2c1sc1nc3n(c(=O)c21)CCCC3 [Compound 3e]
31.1,21.8,43.9,40.2,8.7,22,,,,,"O=C1CCCc2c1sc1nc3n(c(=O)c21)CCC3 [Compound 3f, 2,3,8,9-Tetrahydro[1]benzothieno[2,3-d]pyrrolo[1,2-a]pyrimidine-6,10(1H,7H)-dione]"
3.5,1.5,,42.1,36.9,82.1,5.3% and 14.3%,43.9%,31.2,80.1,"O=CC1=C(Cl)c2sc3nc4n(c(=O)c3c2CC1)CCCCCC4 [Compound 4b, 4-Chloro-1,2,3,7,8,9, 10,11,12-octahydro[1]benzothieno[2′,3′:4,5]pyrimido-[1,2-a]-azocin-14-one-4-carboxyaldehyde]"
9.6,28.3,9.8,14.2,23.5,44.4,11.1%,17.3%,24.6,52.1,"Cn1cnc2sc3c(c2c1=O)CCC(C=O)=C3Cl [Compound 4e, 8-Chloro-5,6-dihydro-3-methyl[1]benzothieno[2,3-d]pyrimidin-4(3H)-one-7-carboxyaldehyde]"
19.7,25.2,43.4,100,66.1,100,,,,,"CCSC1=C(C=O)CCc2c1sc1nc3n(c(=O)c21)CCCCC3 [Compound 5b, 1,2,7,8,9,10,11,13-Octahydro-13-oxo-4-(ethylthio)[1]benzothieno[2′,3′:4,5]-pyrimido-[1,2-a]azepine-3-carboxaldehyde]"
14,-5.1,,,19.7,22.5,,,,,"CC1CCc2c(sc3nc4n(c(=O)c23)CCCCC4)C1O (stereo not shown) [Compound 32, 4-Hydroxy-3-methyl-2,3,4,7,8,9,10,1-octahydro [1]benzothieno[2′,3′: 4,5]pyrimido-[1,2-a]azepin-13(1H)-one]"
5,-0.1,,,15.3,22.6,,,,,"CCCSC1=C(C=O)CCc2c1sc1nc3n(c(=O)c21)CCC(C(=O)O)CC3 (stereo not shown) [Compound 33, 3-Formyl-1,2,7,8,9,10,11,13-octahydro-13-oxo-4-(propylthio)-[1]benzothieno[2′,3′: 4,5] pyrimido[1,2-a]azepine-9-carboxylic acid]"
13,-0.5,,,14.9,48.1,,,,,"CCCSC1=C(C=O)CCc2c1sc1nc3n(c(=O)c21)CCC(C)CC3 (stereo not shown) [Compound 34, 9-Methyl-1,2,7,8,9,10,11,13-octahydro-13-oxo-4-(propylthio)-[1]benzothieno[2′,3′: 4,5]-pyrimido[1,2-a]azepine-3-carbaldehyde]"
